Experimental data published in patent publication US20130011376A1, “Methods for Enhancing Natural Killer Cell Proliferation and Activity” (GAMIDA CELL LTD., priority 2009, published 2013).

Tests used:
Assay type in all cases: cell-based, human
[1] = tested on: bone marrow derived CD56+ cells; test: Proliferation and subsets of bone marrow derived CD56+ cells in culture
Experimental: Bone marrow (BM) and peripheral blood (PB) cells were layered on a Ficoll-Hypaque gradient (1.077 g/mL; Sigma), and centrifuged at 800×g for 30 min. The mononuclear cells in the interface layer were collected and washed three times in phosphate-buffered saline (PBS) (Biological Industries, Israel) containing 0.5% HSA.
Cord blood (CB), bone marrow (BM) or peripheral blood (PB) cells were layered on a Ficoll-Hypaque gradient (1.077 g/mL; Sigma), and centrifuged at 800×g for 30 minutes for separation of the mononuclear cells. The cells in the interface layer were collected and washed three times in phosphate-buffered saline (PBS) (Biological Industries, Israel) containing 0.5% HSA. To purify the CD56+ cells, the mononuclear cell fraction was subjected to two cycles of immunomagnetic bead separation, using a “MiniMACS or CliniMACS CD56 progenitor cell isolation kit” (Miltenyi Biotec Bergisch, Gladbach, Germany), according to the manufacturer's recommendations. Briefly, CD56+ cells are reacted with CD56+ specific magnetic immunobeads, separated and with a magnetic separator, and purified from unbound cells by washing. The purity of the CD56+ population thus obtained is approximately 92%, as evaluated by flow cytometry.
2. Purified CD56+ or CD56+CD3− cells from total nuclear or mononuclear cells or from the fraction depleted from CD34+ or CD133+ cells were cultured in culture bags, T-Flasks or 24 well plates at a concentration of 1-100×10^4 cells/ml in MEMα/10% FCS or CellGro SCGM (Cell Genix)/5% Human Serum/LiforCell® FBS Replacement (Lifeblood Products) containing the following human recombinant cytokines:, interleukin-2 (IL-2) (5-50 ng/ml), interleukin-15 (IL-15), FLT-3 or SCF or FLT3 and SCF or IL-2 and IL-15 or IL-2 only (Perpo Tech, Inc., Rocky Hill, N.J., USA), with or without nicotinamide, and incubated at 37° C. in a humidified atmosphere of 5% CO2 in air. The cultures were topped up once or twice a week with the same volume of fresh medium containing growth factors with or without nicotinamide. Eventually cultures can be supplemented once or several times a week with IL-2 and or IL-2 and IL-15. To estimate the number of cells in culture, cell samples were stained with trypan blue for counting. At various time points, samples were taken for FACS analysis to assay the relative fractions of NK cells, CD56+CD3−, CD56+CD3+, CD34+CD56+, CD56+CD16+ and/or CD56+ NKG2A cells.
To determine total number of cells on day 7, 14 and 21, the cell count/ml was multiplied by the volume of the culture medium. In order to determine the number of NK cells in culture, the total number of cells in culture was multiplied by the percent of CD56+/CD3− cells measured with the FACS on days 7, 14 or 21. To measure fold expansion, total number of NK cells on days 7, 14 and 21 was divided by total number of NK cells seeded in culture on day-0.
(§1) The cells were washed with a PBS solution containing 1% BSA, and stained (at 4° C. for 30 min) with fluorescein isothiocyanate (FITC)- or phycoerythrin (PE)-conjugated antibodies or allophycocyanin (APC). The cells were then washed in the above buffer and analyzed using a FACScalibur® flow cytometer (Becton Dickinson, San Jose, Calif., USA). The cells were passed at a rate of up to 1000 cells/second, using a 488 nm or 661 nm argon laser beam as the light source for excitation. Emission of 10^4 cells was measured using logarithmic amplification, and analyzed using the CellQuest software (Becton Dickinson). Cells stained with FITC, PE and APC-conjugated isotype control antibodies were used to determine background fluorescence.

[2] = tested on: peripheral blood-derived, immunobeads-purified CD56+ cells; test: Assay of CD62L expression on NK cell surface, purified peripheral blood CD56+ cells; details: 2.5-7.5 mM nicotinamide, 3 weeks in culture
Experimental: Cultures were initiated with peripheral-blood-derived CD56+ cells purified with immunomagnetic beads and activated with cytokines (including IL-2 and IL-15) with or without nicotinamide (2.5, 5 and 7.5 mM). NK cells were stained with specific antibodies for the specified surface markers (e.g., CD62L) before activation in culture and after 3 weeks incubation with nicotinamide, and then monitored by FACS.

[3] = tested on: peripheral blood CD56+ NK cells; test: CXCR4 and CD62L expression on NK cells co-cultured with irradiated mononuclear cells; details: co-culture with irradiated mononuclear cells, nicotinamide 2.5 and 5 mM
Text: NK cell cells from total mononuclear cell fraction, purified CD56+ or CD56+CD3− cells from total nuclear or mononuclear cells or from the fraction depleted from CD34+ or CD133+ cells, or CD3+ depleted, or CD3+/CD19+ depleted mononuclear cell fraction from PB, BM and CB can be cultured with irradiated stroma. For the preparation of irradiated stroma (feeder cells), mononuclear cells were irradiated with 3000 rad. After CD56 or CD56+CD3− selection or CD3 depletion the cells were counted and characterized by FACS analysis as described hereinabove. Cells were cultured as described hereinabove, with and without nicotinamide, with and without irradiated stroma at a concentration of irradiated cells of 20×10^5 cells/ml.
as §1, with “The cells were passed at a rate of up to 1000 cells/second, using a 488 nm or 661 nm argon laser beam as the light source for excitation.” left out, “fluorescence. […]” for “fluorescence.”

[4] = 1 mM, 2.5 mM and 5 mM nicotinamide, 7 days

For NC(=O)c1cccnc1 [nicotinamide], the “proliferation of CD56+CD3+ NKT cells” value [1, 4] was “decreased proliferation”, the “proliferation of the CD56+CD3- NK cell subset” value [1, 4] was “enhancement of proliferation” and the “proliferation of CD56+CD16+ NK cells” value ([1]; 2.5 mM and 5 mM nicotinamide, 7 days) was “most enhanced”. The “increase of NK cell proliferation between 14 and 21 days” value ([1]; 2.5 mM nicotinamide) was 50%, the “fraction of NK cells displaying the CD56+CD16+ phenotype vs cytokines alone” value ([1]; 2.5 mM nicotinamide, 14 and 21 days) was “significant increase” and the “proliferation of NK cells (fold increase)” value ([1]; 2.5 mM nicotinamide, 14 days) was 8 fold increase. The “proliferation of NK cells (fold increase)” value ([1]; 2.5 mM nicotinamide, 21 days) was 12 fold increase, the “CD56+CD3- NK cells among cultured cells (dominance over CD56+CD3+ NKT cells)” value ([1]; nicotinamide treated cultures, 21 days) was “greater than 80%” and the “expression of CD62L following activation in culture with IL-2” value [2] was “remarkable increase”. For the same compound, the “expression of surface marker CD62L” value [3] was “marked increase” and the “expression of surface marker CXCR4” value [3] was “marked increase”.
